Data reported in patent US4119667A, “Haloaniline derivatives as plant growth modifiers” (Rohm and Haas Company, priority 1974, dated 1978).
Where a name gives a salt, the structure may show the parent alone. Read-outs that look alike come from different tables or passages of the source.

Test system: soybean (Var. Clark)
Test: greenhouse growth regulator test on soybean (Table I)
Type: in vivo
Settings: two weeks after application; for Injury (0-10): 0-10 scale, 0 = no effect, 10 = complete kill; for pest or weed control / pest or weed control at 2241.7 g/ha: Glycine max, foliar, 336 h, read-out: Height (% inhib.); for pest or weed control / pest or weed control at 2241.7 g/ha / Height (% inhib.): relative to control
From the text: Limited greenhouse experiments shown that there is promotion of lateral bud growth when compounds are applied at higher concentrations and earlier timings and an increase in soybean pod numbers at lower rates applied just prior to or at the flowering stage. […] Three parameters are reported in Table I to indicate the general spectrum of activity for each evaluated compound including the propensity for releasing lateral bud growth in soybeans. These are: (a) plant height measured as percent inhibition relative to the control; (b) the number of lateral buds per plant; and (c) phytotoxic injury on a scale of 0 to 10 (10 being maximum injury). Sampling compounds were evaluated in the greenhouse in a special growth regulator test. Four to five soybean seeds (Var. Clark) were planted in 4-inch pots with a humus-soil mixture. Two weeks after planting, two uniform plants were selected from each pot for treatment. The candidate compounds were dissolved in acetone-water (1:1), and applied as a foliar spray in a carrier volume of 50 gallons per acre, using a moving belt sprayer at a rate of 1/4, 1/2 and 2 lbs/acre. Six plants were used for each treatment. Two weeks after application, the number of laterals per plant, plant injury (0-10 scale; 0 = no effect, 10 = complete kill,) and the height of each plant were recorded. Untreated plants were used as controls.

| Structure (SMILES) | No. Laterals per plant (1/2 lbs/acre foliar spray) | Injury (0-10) (1/2 lbs/acre) | No. Laterals per plant (1/4 lbs/acre foliar spray) | Injury (0-10) (1/4 lbs/acre) | No. Laterals per plant (2 lbs/acre foliar spray) | Injury (0-10) (2 lbs/acre) | pest or weed control (1/2 lbs/acre foliar spray) [%] | pest or weed control (1/4 lbs/acre foliar spray) [%] | pest or weed control at 2241.7 g/ha (2 lbs/acre foliar spray) [%] | Height (% inhib.) (2 lbs/acre foliar spray) | Height (% inhib.) (1/2 lbs/acre foliar spray) | Height (% inhib.) (1/4 lbs/acre foliar spray) | Height (% inhib.) (1/2 lbs/acre foliar spray, HCl) | No. Laterals per plant (1/2 lbs/acre foliar spray, HCl) | Injury (0-10) (1/2 lbs/acre, HCl) | Height (% inhib.) (1/4 lbs/acre foliar spray, HCl) | No. Laterals per plant (1/4 lbs/acre foliar spray, HCl) | Injury (0-10) (1/4 lbs/acre, HCl) | Height (% inhib.) (2 lbs/acre foliar spray, HCl) | No. Laterals per plant (2 lbs/acre foliar spray, HCl) |
| --- | --- | --- | --- | --- | --- | --- | --- | --- | --- | --- | --- | --- | --- | --- | --- | --- | --- | --- | --- | --- |
| Clc1ccc(NCNc2ccc(Cl)c(Cl)c2)cc1Cl [II, n,n'-bis[3,4-dichlorophenyl]methanediamine] | 0 | 2 | 2 | 3 | 5 | 2 | 15 | 20 | 7 | – | – | – | – | – | – | – | – | – | – | – |
| Brc1cc(Br)cc(NCNc2cc(Br)cc(Br)c2)c1 [III, n,n'-bis[3,5-dibromophenyl]methanediamine] | 0 | 1 | 0 | 1 | 3 | 1 | 2 | 0 | 0 | – | – | – | – | – | – | – | – | – | – | – |
| Clc1ccc(N=Cc2ccccc2Cl)cc1Cl [IX, 3,4-dichloro-N-(2-chlorobenzylidene)aniline] | 4 | 0 | 0 | 0 | 4 | 2 | 23 | 0 | 12 | – | – | – | – | – | – | – | – | – | – | – |
| Clc1cc(Cl)cc(N=Cc2ccccc2Cl)c1 [V, 3,5-dichloro-N-(2-chlorobenzylidine)aniline] | 3 | 0 | 2 | 0 | 5 | 0 | 8 | 1 | 13 | – | – | – | – | – | – | – | – | – | – | – |
| Clc1cccc(C=Nc2cc(Cl)cc(Cl)c2)c1 [VI, 3,5-dichloro-N-(3-chlorobenzylidene)aniline] | 3 | 1 | 2 | 2 | 5 | 1 | 21 | – | 13 | – | – | – | – | – | – | – | – | – | – | – |
| Clc1ccc(C=Nc2cc(Cl)cc(Cl)c2)cc1 [VII, 3,5-dichloro-N-(4-chlorobenzylidene)aniline] | 4 | 0 | 2 | 0 | 5 | 0 | 9 | – | 13 | – | – | – | – | – | – | – | – | – | – | – |
| Clc1cc(Cl)cc(N=Cc2c(Cl)cccc2Cl)c1 [VIII, 3,5-dichloro-N-(2,6-dichlorobenzylidene)aniline] | 2 | 0 | 0 | 0 | 5 | 0 | 7 | 1 | 15 | – | – | – | – | – | – | – | – | – | – | – |
| Clc1cccc(C=Nc2ccc(Cl)c(Cl)c2)c1 [X, 3,4-dichloro-N-(3-chlorobenzylidene)aniline] | 3 | 1 | 1 | 0 | 3 | 3 | 14 | 9 | 13 | – | – | – | – | – | – | – | – | – | – | – |
| Clc1ccc(C=Nc2ccc(Cl)c(Cl)c2)cc1 [XI, 3,4-dichloro-N-(4-chlorobenzylidene)aniline] | 5 | 1 | 1 | 0 | 4 | 3 | 25 | 4 | 14 | – | – | – | – | – | – | – | – | – | – | – |
| Clc1ccc(N=Cc2c(Cl)cccc2Cl)cc1Cl [XII, 3,4-dichloro-N-(2,6-dichlorobenzylidene)aniline] | 2 | 1 | 1 | 1 | 6 | 1 | – | 5 | 18 | – | – | – | – | – | – | – | – | – | – | – |
| Clc1cc(Cl)cc(N=CNc2cc(Cl)cc(Cl)c2)c1 [XIV, N,N'-Bis[3,5-dichlorophenyl]formamidine] | 3 | 3 | 1 | 2 | 4 | 0 | 11 | 13 | – | 4 | – | – | – | – | – | – | – | – | – | – |
| O=CNc1ccc(Cl)c(Cl)c1 [XIX, 3',4'-dichloroformanilide] | 0 | 0 | 5 | 1 | 4 | 3 | 0 | 2 | 13 | – | – | – | – | – | – | – | – | – | – | – |
| Clc1ccc(N=CNc2ccc(Cl)c(Cl)c2)cc1Cl [XV, n,n'-bis[3,4-dichlorophenyl]formamidine] | 2 | 2 | 2 | 2 | 2 | 1 | – | – | – | 4 | 15 | 23 | – | – | – | – | – | – | – | – |
| CCOC=Nc1cc(Cl)cc(Cl)c1 [XVI, Ethyl N-(3,5-dichlorophenyl)formimidate] | 4 | 1 | 2 | 1 | 5 | 2 | 2 | 0 | 22 | – | – | – | – | – | – | – | – | – | – | – |
| CCOC=Nc1ccc(Cl)c(Cl)c1 [XVII, ethyl N-(3,4-dichlorophenyl)formimidate] | 0 | 1 | 2 | 2 | 4 | 6 | – | 24 | 34 | – | – | – | – | – | – | – | – | – | – | – |
| Cl.Clc1cc(Cl)cc(N=CNc2cc(Cl)cc(Cl)c2)c1 [XX, N,N'-Bis[3,5-dichlorophenyl]formamidine hydrochloride] | 4 | 2 | 2 | 2 | 6 | 0 | – | – | – | 44 | 19 | 10 | – | – | – | – | – | – | – | – |
| Clc1ccc(N=CNc2ccc(Cl)c(Cl)c2)cc1Cl [XXI, n,n'-bis[3,4-dichlorophenyl]formamidine HCl] | – | – | – | – | – | – | – | – | – | – | – | – | 4 | 4 | 1 | 0 | 1 | 0 | 20 | 5 |
| CCOC(CC)=Nc1cc(Cl)cc(Cl)c1 [XXII, Ethyl N-(3,5-dichlorophenyl)propionimidate] | 3 | 1 | 1 | 2 | 3 | 1 | – | – | – | – | – | – | – | – | – | – | – | – | – | – |
